Assay results as given in patent publication US20160045513A1, “ISOXAZOLE COMPOUND FOR THE TREATMENT OF CANCER” (Novartis AG, priority 2007, published 2016).

What was measured:
Assay in all cases: cell proliferation, tumor derived cell lines
Assay type in all cases: cell-based
MDA-MB-361 = settings: Homo sapiens, Breast, 72 or 96 hours exposure
Experimental: (§1) Thirty-seven cancer derived cell lines are used (BT474, MDA-MB-361, MDA-MB-453, SKBr3, T47D, MCF7, MDA-MB-231, MDA-MB-468, SK-MEL-5, A375, MALME-3M, SK-MEL-28, WM266.4, RPMI8226, U266, BE, Colo205, HCT116, HT29, MAWI, RKO, U87MG, HN5, RPMI-8226, A549, MV522, NCI-H1299, NCI-H460, 41M, A2780, CHI, NCI-N87, SKOV3, PC3, MO7e, GIST882 and Baf3) to test the effect of 5-(2,4-Dihydroxy-5-isopropyl-phenyl)-4-(4-morpholin-4-ylmethyl-phenyl)-isoxazole-3-carboxylic acid ethylamide. Cell lines are commercially available from American Type Culture Collection (ATCC). These cell lines cover the following 12 cancer or tumor types: breast, melanoma, multiple myeloma (MM), colon, glioblastoma, head & neck, leukemia, lung, ovarian, prostate, stomach and gastrointestinal stromal tumour (GIST). After division and medium change, cells from stock culture are seeded on cell plates and cultured for about 18 hours to allow cell growth and attachment before starting the assay. On the first day of the assay, 5-(2,4-Dihydroxy-5-isopropyl-phenyl)-4-(4-morpholin-4-ylmethyl-phenyl)-isoxazole-3-carboxylic acid ethylamide is added to the medium at various concentrations up to […]. Cells are cultured up to 72 or 96 hours and cell proliferation is determined using commercially available cell proliferation kits.
(§2) The cells were continually exposed to 5-(2,4-Dihydroxy-5-isopropyl-phenyl)-4-(4-morpholin-4-ylmethyl-phenyl)-isoxazole-3-carboxylic acid ethylamide for either 72 or 96 hours and cell growth was determined by commercially available kits based on either SRB, Alamar blue, methylene blue or WST-1 methods.

RPMI-8226 = settings: Homo sapiens, Leukemia, 72 or 96 hours exposure
Experimental: as §1, §2

A2780 = settings: Homo sapiens, Ovarian, 72 or 96 hours exposure
Experimental: as §1, §2

PC3 = settings: Homo sapiens, PC-3, Prostate, 72 or 96 hours exposure
Experimental: as §1, §2

Colo205 = settings: Homo sapiens, COLO 205, Colon, 72 or 96 hours exposure
Experimental: as §1, §2

CH1 = settings: Homo sapiens, Ovarian, 72 or 96 hours exposure
Experimental: as §1, §2

NCI-H460 = settings: Homo sapiens, Lung, 72 or 96 hours exposure
Experimental: as §1, §2

MCF7 = settings: Homo sapiens, Breast, 72 or 96 hours exposure
Experimental: as §1, §2

WM266.4 = settings: Homo sapiens, WM 266-4, Melanoma, 72 or 96 hours exposure
Experimental: as §1, §2

Baf3 = settings: Mus musculus, Gastrointestinal stromal tumour (GIST), 72 or 96 hours exposure
Experimental: as §1, §2

GIST882 = settings: Homo sapiens, Gastrointestinal stromal tumour (GIST), 72 or 96 hours exposure
Experimental: as §1, §2

MV522 = settings: Lung, 72 or 96 hours exposure
Experimental: as §1, §2

MO7e = settings: 72 or 96 hours exposure
Experimental: as §1, §2

BT474 = settings: Homo sapiens, BT-474, Breast, 72 or 96 hours exposure
Experimental: as §1, §2

A549 = settings: Homo sapiens, Lung, 72 or 96 hours exposure
Experimental: as §1, §2

HT29 = settings: Homo sapiens, HT-29, Colon, 72 or 96 hours exposure
Experimental: as §1, §2

NCI-N87 = settings: Homo sapiens, Stomach, 72 or 96 hours exposure
Experimental: as §1, §2

SKOV3 = settings: Homo sapiens, SK-OV-3, Ovarian, 72 or 96 hours exposure
Experimental: as §1, §2

T47D = settings: Homo sapiens, Breast, 72 or 96 hours exposure
Experimental: as §1, §2

MDA-MB-231 = settings: Homo sapiens, Breast, 72 or 96 hours exposure
Experimental: as §1, §2

SKBr3 = settings: Homo sapiens, SK-BR-3, Breast, 72 or 96 hours exposure
Experimental: as §1, §2

41M = settings: Homo sapiens, Ovarian, 72 or 96 hours exposure
Experimental: as §1, §2

HN5 = settings: Homo sapiens, Head & Neck, 72 or 96 hours exposure
Experimental: as §1, §2

NCI-H1299 = settings: Homo sapiens, Lung, 72 or 96 hours exposure
Experimental: as §1, §2

HCT116 = settings: Homo sapiens, HCT-116, Colon, 72 or 96 hours exposure
Experimental: as §1, §2

MAWI = settings: Colon, 72 or 96 hours exposure
Experimental: as §1, §2

MDA-MB-468 = settings: Homo sapiens, Breast, 72 or 96 hours exposure
Experimental: as §1, §2

MALME-3M = settings: Homo sapiens, Melanoma, 72 or 96 hours exposure
Experimental: as §1, §2

SK-MEL-28 = settings: Homo sapiens, Melanoma, 72 or 96 hours exposure
Experimental: as §1, §2

SK-MEL-5 = settings: Homo sapiens, Melanoma, 72 or 96 hours exposure
Experimental: as §1, §2

MDA-MB-453 = settings: Homo sapiens, Breast, 72 or 96 hours exposure
Experimental: as §1, §2

U266 = settings: Homo sapiens, U-266, Multiple myeloma (MM), 72 or 96 hours exposure
Experimental: as §1, §2

Question: What does the source list for `CCNC(=O)c1noc(-c2cc(C(C)C)c(O)cc2O)c1-c1ccc(CN2CCOCC2)cc1` [AUY922, 5-(2,4-Dihydroxy-5-isopropyl-phenyl)-4-(4-morpholin-4-ylmethyl-phenyl)-isoxazole-3-carboxylic acid ethylamide]?
Answer: IC50 (MDA-MB-361): 6 nM; IC50 (RPMI-8226): 6.3 nM; IC50 (A2780): 6.1 nM; IC50 (PC3): 5 nM; IC50 (Colo205): 6.2 nM; IC50 (CH1): 2.8 nM; IC50 (NCI-H460): 14 nM; IC50 (MCF7): 2.3 nM; IC50 (WM266.4): 6.2 nM; IC50 (Baf3): 22.4 nM; IC50 (GIST882): 6.2 nM; IC50 (MV522): 8.1 nM; IC50 (MO7e): 10.6 nM; IC50 (BT474): 2.8 nM; IC50 (A549): 11.7 nM; IC50 (HT29): 30 nM; IC50 (NCI-N87): 0.2 nM; IC50 (SKOV3): 3.7 nM; IC50 (T47D): 2.6 nM; IC50 (MDA-MB-231): 7.7 nM; IC50 (SKBr3): 2.3 nM; IC50 (41M): 3 nM; IC50 (HN5): 8 nM; IC50 (NCI-H1299): 5.7 nM; IC50 (HCT116): 16 nM; IC50 (MAWI): 50 nM; IC50 (MDA-MB-468): 3.5 nM; IC50 (MALME-3M): 7.7 nM; IC50 (SK-MEL-28): 8 nM; IC50 (SK-MEL-5): 3 nM; IC50 (MDA-MB-453): 3.9 nM; IC50 (U266): 23.3 nM
